Values quoted from earlier work as cited in US20170056332A1, “HEMORRHOID PREPARATION AND SHEETS” (C.B. Fleet Company, Incorporated, priority 2015, published 2017).

Settings: in the presence of menthol; Obata et al. 1990

percutaneous absorption of hydrophilic diclofenac sodium: substantially enhanced
SMILES: CC1CCC(C(C)C)C(O)C1 (stereo not shown) [Menthol]
